How the values were obtained:
IL-6 [1] = assay: IL-6 production of MΦ after NAC drinking and/or IL-2 administration (Example 8); assay type: in vivo, DBA/2 female mice; conditions: stimulated with LPS and IFNγ; control mice 1,240 pg/ml
Protocol: A stimulator was added to 1×10^6 MΦ, and the incubation was conducted at 37° C. for 2 days in a CO2 incubator. After centrifugation, the culture supernatant was collected.
The amount of IL-6 was determined using IL-6 dependent mouse hybridoma MH60 cells (J. Eur. Immunol., vol. 18, p. 951, 1988). One hundred microliters of the culture supernatant were added to 100 μl of the MH60 cell suspension adjusted to 1×10^5 cells/ml in a 10% FCS-containing RPMI medium, and the mixed solution was incubated at 37° C. for 2 days in a CO2 incubator. Subsequently, 10 μl of MTT (supplied by Sigma Co.) solution adjusted to a concentration of 5 mg/ml in the same medium were added thereto, and the reaction was conducted at 37° C. for 5 hours. […] Immediately after the dissolution, an absorbance of 570 nm was measured with an immunometer (supplied by Bio-Rad).
Two groups, namely, a group of 8-week-old DBA/2 female mice which were caused to freely drink city water as in Example 6, and a group of the same female mice which were caused to freely drink city water containing 1 mg/ml of NAC, were prepared. […] On day 14, the IL-12 production from MΦ was measured in the same manner as in Example 6.
Peritoneal cells were harvested from four groups of the mice, and stimulated with LPS and IFNγ. Then, the NO production, the IL-6 production and the IL-12 production were measured.

IL-12 [2] = assay: IL-12 production of MΦ after NAC drinking and/or IL-2 administration (Example 8); assay type: in vivo, DBA/2 female mice; conditions: stimulated with LPS and IFNγ; control mice 0 pg/ml
Protocol: (§1) The amount of IL-12 was determined through bioassay using cells of human T cell strain 2D6 (J. Leukocyte Biology, vol. 61, p. 346, 1997).
(§2) 2D6 cells which had been incubated in an RPMI 1640 medium containing 500 pg/ml of recombinant human IL-12, 50 μM of 2-mercaptoethanol and 10% FCS (fetal calf serum) were moved to a tube, and centrifugally washed three times with the above-mentioned medium without IL-12 and cell density was adjusted to 1×10^5/ml. The cell suspension was added in an amount of 100 μl each to a 96-well flat bottom plate containing a sample serially diluted in advance with an RPMI 1640 medium containing 50 μM of 2-mercaptoethanol and 10% FCS in an amount of 100 μl each. Subsequently, the mixture was charged into a 5% […] incubator of 37° C., and incubated for 48 hours. For final 6 hours, ^3H-TdR was pulsed (a substance adjusted to 370 kBq/ml in an RPMI 1640 medium containing 50 μM of 2-mercaptoethanol and 10% FCS was added in an amount of 50 μl each). The cells a harvested, and the radioactivity was measured using a β counter (Matrix 96, supplied by Packard).

[3] = system: reductive glutathione in peritoneal macrophages; assay: Reductive glutathione content of peritoneal macrophages by ACAS, advanced tumor-bearing mice (Example 4); assay type: in vivo, CDF1 mice; conditions: oral 1 mg/0.5 ml/h every day for 10 days from day 21 after COLON 26 implantation; control physiological saline
Protocol: Oxidative and reductive macrophages collected from peritoneal cavities of advanced tumor-bearing cachectic mice (COLON 26) and normal mice were determined. The COLON 26 transplantable tumor well known to induce a cancer cachexia was implanted subcutaneously in the back portion of CDF1 mice at a density of 5×10^5 cells/mouse. On day 21 after the tumor implantation, the cachectic condition was provided. Five milliliters of a physiological saline solution were intraperitoneally injected into the mice which became resistant to a therapeutic treatment. Peritoneal macrophages were collected, and suspended in a phenol red-free RPMI 1640 medium containing 10% fetal calf serum to a density of 3×10^5 cells/ml. One hundred microliters of the suspension were charged in a Lab-Tek Chamber Slide (#136439, supplied by Nunc), and incubated in 5% CO2 at 37° C. for 3 hours. After the nonadherent cells were removed, 200 μl of the above-mentioned medium free from serum were added thereto, and monochlorobimane (MCB) was added thereto in an amount of 10 μM. The reaction was conducted for 30 minutes, and the image analysis was conducted on the basis of the UV absorption using an ACAS device (supplied by Meridien).
The COLON 26 transplantable tumor was implanted subcutaneously in the back portion of CDF1 mice at a density of 5×10^5 cells/mouse. […]

PGE2 = PGE2 in macrophage culture supernatant, advanced tumor-bearing mice (Example 4); assay type: in vivo, CDF1 mice; conditions: oral 1 mg/0.5 ml/h for 10 days, COLON 26 mice; control mice 32 ng/ml
Protocol: After the completion of the above-mentioned incubation, the culture supernatant was recovered. The amount of IL-6 was measured by the proliferation assay using an IL-6-dependent cell strain, MH60, the amount of PGE2 was measured using an ELISA-kit, and the amount of NO was measured using a Griess-Romijn reagent. These measurements were conducted by a method which those skilled in the art usually employ.
The COLON 26 transplantable tumor was implanted subcutaneously in the back portion of CDF1 mice at a density of 5×10^5 cells/mouse. […] Glutathione ethyl ester was orally administered to the mice every day in a dosage of 1 mg/0.5 ml/h. This oral administration was continued for 10 days. The peritoneal cells were collected from the mice in the same manner as in Example 3. Peritoneal macrophages were collected, and suspended in a phenol red-free RPMI 1640 medium containing 10% fetal calf serum to a density 3×10^5 cells/ml. The suspension was charged into a Lab-Tek Chamber Slide (#136439, supplied by Nunc) in an amount of 100 μl, and the incubation was conducted in 5% CO2 at 37° C. for 3 hours. After the nonadherent cells were removed, 200 μl of above-mentioned medium free from serum were added thereto, and 10 μM of monochlorobimane were then added thereto. […]

IL-12 [4] = assay: IL-12 production by MΦ induced by intraperitoneal injection of substances (Example 7); assay type: in vivo, mouse
Protocol: as §1, §2
It was examined whether there is a difference in the IL-12 production between LNT-induced MΦ and LPS-induced MΦ. […] Next, the same analysis was conducted using MΦ induced by intraperitoneally injecting substances for changing the GSH content in cells.

IL-6 [5] = assay: IL-6 in culture supernatant of macrophages of NOD mice (Example 22); assay type: in vivo; conditions: oral 1 mg/0.5 ml/h/day on alternate days, five times, age 4 weeks; control group 3800 pg/ml
Protocol: The amount of IL-6 was determined using IL-6 dependent mouse hybridoma MH60 cells (J. Eur. Immunol., vol. 18, p. 951, 1988). One hundred microliters of the culture supernatant were added to 100 μl of the MH60 cell suspension adjusted to 1×10^5 cells/ml in a 10% FCS-containing RPMI medium, and the mixed solution was incubated at 37° C. for 2 days in a CO2 incubator. Subsequently, 10 μl of MTT (supplied by Sigma Co.) solution adjusted to a concentration of 5 mg/ml in the same medium were added thereto, and the reaction was conducted at 37° C. for 5 hours. After the completion of the reaction, the centrifugation was conducted. The supernatant (160 μl) was removed, and 100 μl of a mixture of hydrochloric acid and propanol were added to the residue. The suspension was conducted using a pipetman to dissolve the cells. Immediately after the dissolution, an absorbance of 570 nm was measured with an immunometer (supplied by Bio-Rad).
Through a probe, glutathione ethyl ester was orally given at 1 mg/0.5 ml/h/day to the NOD mice of age 4 weeks on alternate days, in total five times. By the same method as in Example 3, intraperitoneal cells were collected from the mice to sample intraperitoneal macrophages, which were then suspended and adjusted in a phenol red-free RPMI 1640 culture medium supplemented with 10% fetal calf serum to 3×10^6 cells/ml. […]

| Compound | amount of IL-6 in the macrophage culture supernatant (IL-6 [1]) | amount of IL-12 (IL-12 [2]) | amount of oxidative macrophage (reductive glutathione content decreased) in comparison with control mice [3] | amount of PGE2 (PGE2) | IL-12 production (IL-12 [4]; MΦ induced by intraperitoneal injection of the substance, stimulation with LPS and IFNγ) | IL-12 production of substance-induced MΦ, without DEM or IL-4 (IL-12 [4]; baseline values of the DEM and IL-4 experiments) | IL-6 in the culture supernatant of the macrophages (IL-6 [5]) |
| --- | --- | --- | --- | --- | --- | --- | --- |
| CC(=O)N[C@@H](CS)C(=O)O [NAC, N-acetylcysteine, reference compound] | 320 pg/mL | 620 pg/mL | – | – | – | – | – |
| CCOC(=O)CNC(=O)[C@H](CS)NC(=O)CC[C@H](N)C(=O)O [GSH-OEt, glutathione monoethyl ester] | – | – | relatively decreased | 6.5 ng/mL | 3,570 pg/ml | 490 pg/mL | 460 pg/mL |

— US7378387B2, “Method of suppressing immune response by reducing intracellular content of glutathione in macrophages and monocytes” (Ajinomoto Co., Inc., priority 1997, dated 2008)
